Data from PMC9104802 (Cells, 2022).

Key:
[1] = biological target: T1, hTERT (telomerase reverse transcriptase) (Homo sapiens, UniProt O14746); experiment: fluorescence polarization with His-hTRBD, BSA negative control; supported by TRAP inhibition of reconstituted GST-opTERT/hTERC and immunoprecipitated FLAG-hTERT telomerase (IC50 […]); format: binding
T1 construct: gene TERT

[2] = test system: Telo24 (human telomeric oligonucleotide, telomeric G-quadruplex) (DNA, G4) TTAGGGTTAGGGTTAGGGTTAGGG; experiment: microscale thermophoresis (MST); conditions: K+ 100 mM KCl (plus potassium phosphate); 10 mM K2HPO4/KH2PO4 pH 7.0; 30 min; 1 μM DNA; SC 0.15625-320 μM; apparent

T1 sequence (O14746 325-550 limits assumed): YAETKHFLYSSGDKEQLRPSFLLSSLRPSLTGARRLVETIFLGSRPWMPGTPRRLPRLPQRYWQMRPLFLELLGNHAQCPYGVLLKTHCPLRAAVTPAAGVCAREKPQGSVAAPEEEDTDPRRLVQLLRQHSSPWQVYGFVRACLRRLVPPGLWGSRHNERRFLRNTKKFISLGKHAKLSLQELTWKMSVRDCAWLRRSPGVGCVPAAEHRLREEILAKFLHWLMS

Question: With C[n+]1cc2c3c(ccc2c2ccc4cc5c(cc4c21)OCO5)OCO3 [SC, Sanguinarine chloride] as the compound, how does the EC50 [1] read?
Answer: 24.8 µM

Question: And the EC50 [2]?
Answer: 120 µM
